Where “and” joins values, the source holds several entries; their conditions need not be identical. Equal entries are not always repeated. Where two headings read alike, the source gives them in different places.
Legend:
Plutella xylostella eggs = test: whole plant or invertebrate; format: in vivo; conditions: for inhibition at 10000 µM: Plutella xylostella; for Logit calc pLD50 / Pref pLD50: in vivo
Protocol: The ovicidal efficacy of 2-acetyl-1-tetralone was also tested against Plutella eggs.

lice eggs = test: whole plant or invertebrate; format: in vivo; conditions: for inhibition at 10000 µM: Pediculus humanus, read-out: Ovicidal activity %; for inhibition at 10000 µM / Activity class 0 = inactive 1 = low 2 = med 3 = high / Ovicidal activity %: Lice (L); for inhibition at 10000 µM / Ovicidal activity %: 10 mM; for Activity class 0 = inactive 1 = low 2 = med 3 = high: listed as of 10 mM; for H (number of eggs successfully hatched) / Ph (number of eggs partly hatched): per replicate, concentration not given
[1] = system: Lice (L) and Plutella (P) eggs; test: whole plant or invertebrate; conditions: read-out: Ovicidal activity %
[2] = system: Lice (L) and Plutella (P) eggs; conditions: Lice (L) and Plutella (P)
[3] = Plutella (P), 10 mM, read-out: Ovicidal activity %
[4] = Plutella (P), listed as of 1 mM
[5] = Table 17, eggs laid on cloth, 1 mM in 1% diethoxyglycol
[6] = Table 14, 10 mM, dipped approximately 2 seconds, eggs on fine cloth

N[C@@H]1CCCC[C@H]1O (relative stereo) [Trans-2-aminocyclohexanol]
inhibition at 10000 µM (Plutella xylostella eggs; read-out: Ovicidal activity %): 0%

Cc1cc(C)cc(C(=O)CC(=O)c2cc(C)cc(C)c2)c1 [1,3-Bis-(3,5-dimethyl-phenyl)-propane-1,3-dione]
inhibition at 10000 µM (Plutella xylostella eggs; [3]): 0%
Logit calc pLD50 (Plutella xylostella eggs): 0.7
Pref pLD50 (Plutella xylostella eggs): <2

COc1ccc(C(=O)CC(=O)c2ccc(OC)cc2)cc1 [1,3-Bis-(4-methoxy-phenyl)-propane-1,3-dione]
inhibition at 10000 µM (Plutella xylostella eggs; [3]): 0%
Logit calc pLD50 (Plutella xylostella eggs): 0.7
Pref pLD50 (Plutella xylostella eggs): <2

CC(C)(C)c1ccc(C(=O)CC(=O)c2ccc(C(C)(C)C)cc2)cc1 [1,3-Bis-(4-tert-butyl-phenyl)-propane-1,3-dione]
inhibition at 10000 µM (Plutella xylostella eggs; [3]): 0%
Logit calc pLD50 (Plutella xylostella eggs): 0.7
Pref pLD50 (Plutella xylostella eggs): <2

O=C(CC(=O)c1cccnc1)c1cccnc1 [1,3-dipyridin-3-yl-propane-1,3-dione]
inhibition at 10000 µM (Plutella xylostella eggs; [3]): 0%
Logit calc pLD50 (Plutella xylostella eggs): 0.7
Pref pLD50 (Plutella xylostella eggs): <2

O=C(CC(=O)c1ccc(Cl)cc1)c1ccccc1 [1-(4-Chloro-phenyl)-3-phenyl-propane-1,3-dione]
inhibition at 10000 µM (lice eggs): 0%

O=C(CC(=O)c1cc(Cl)ccc1O)c1ccccc1 [1-(5-Chloro-2-hydroxy-phenyl)-3-phenyl-propane-1,3-dione]
inhibition at 10000 µM [1]: 0%

c1ccc(Nc2ccccn2)nc1 [2,2-dipyridylamine]
Ovicidal activity % (Plutella xylostella eggs; Plutella (P), 1 mM): 0.00%
Ovicidal activity % (Plutella xylostella eggs; Plutella (P), 10 mM): 100%
Activity class 0 = inactive 1 = low 2 = med 3 = high (Plutella xylostella eggs; [4]): 0 (A pLD50 value less than 2 is considered inactive (Class 0))
Activity class 0 = inactive 1 = low 2 = med 3 = high (Plutella xylostella eggs; Plutella (P), listed as of 10 mM): 1 (a pLD50 value between 2 and 3 is considered weakly active (Class 1))

COC(=O)c1ccc(-c2ccc(C(=O)OC)cn2)nc1 [2,2′ Bipyridinyl-5,5′-dicarboxylic acid dimethyl ester]
Activity class 0 = inactive 1 = low 2 = med 3 = high (lice eggs): 0 (A pLD50 value less than 2 is considered inactive (Class 0))
inhibition at 10000 µM (lice eggs): 0%

c1ccc(-c2cccc(-c3ccccn3)n2)nc1 [2,2′,6,2″-terpyridine]
inhibition of Plutella egg hatching (Plutella xylostella eggs; 1 mM, 1% diethoxyglycol): complete inhibition
Ovicidal activity % (Plutella xylostella eggs; Plutella (P), 1 mM): 100%
Activity class 0 = inactive 1 = low 2 = med 3 = high (Plutella xylostella eggs; [4]): 3 (a pLD50 greater than 4 is considered strongly active (Class 3))
Number hatched (Plutella xylostella eggs; [5]): 0
Number unhatched (Plutella xylostella eggs; [5]): 46
% Inhibition (Plutella xylostella eggs; Table 17, 1 mM, relative to control (1% diethoxyglycol)): 100%
Ovicidal activity % (lice eggs): 0.00%
Activity class 0 = inactive 1 = low 2 = med 3 = high (lice eggs): 0 (A pLD50 value less than 2 is considered inactive (Class 0))

Cc1nc(-c2nc(C)c(C)[nH]2)[nH]c1C [2,2′-Bis(4,5-dimethylimidazole)]
Ovicidal activity % (lice eggs): 0.00%
Activity class 0 = inactive 1 = low 2 = med 3 = high (lice eggs): 0 (A pLD50 value less than 2 is considered inactive (Class 0))

c1ccc2nc(-c3ccc4ccccc4n3)ccc2c1 [2,2′-biquinoline]
inhibition at 10000 µM [1]: 0%

c1ccc(-c2ccccn2)nc1 [2,2′-dipyridyl]
Ovicidal activity % ([2]; 10 mM): 100.00%
Activity class 0 = inactive 1 = low 2 = med 3 = high ([2]; listed as of 10 mM): 1 (a pLD50 value between 2 and 3 is considered weakly active (Class 1))
lice egg hatching (lice eggs; all time points examined (24-120 hr post egg laying)): completely inhibited
H (number of eggs successfully hatched) (lice eggs; treated 24 hr post egg laying): 0
Ph (number of eggs partly hatched) (lice eggs; treated 24 hr post egg laying): 0
H (number of eggs successfully hatched) (lice eggs; treated 48 hr post egg laying): 0
Ph (number of eggs partly hatched) (lice eggs; treated 48 hr post egg laying): 0
H (number of eggs successfully hatched) (lice eggs; treated 72 hr post egg laying): 0
Ph (number of eggs partly hatched) (lice eggs; treated 72 hr post egg laying): 0
H (number of eggs successfully hatched) (lice eggs; treated 96 hr post egg laying): 1 and 0 (2×)
Ph (number of eggs partly hatched) (lice eggs; treated 96 hr post egg laying): 0
H (number of eggs successfully hatched) (lice eggs; treated 120 hr post egg laying): 0
Ph (number of eggs partly hatched) (lice eggs; treated 120 hr post egg laying): 0

c1ccc(-c2ccc3ccccc3n2)nc1 [2-(2-pyridinyl)quinoline]
effect on egg hatching of Plutella xylostella (words) (Plutella xylostella eggs; 10 mM): able to inhibit egg hatching
inhibition at 10000 µM (Plutella xylostella eggs; [3]): 100%
inhibition at 10000 µM (Plutella xylostella eggs; Table 14, 10 mM, relative to control (100% ETOH), read-out: % Inhibition): 96%
Number hatched (Plutella xylostella eggs; [6]): 2
Number unhatched (Plutella xylostella eggs; [6]): 56
Logit calc pLD50 (Plutella xylostella eggs): 3.3
Pref pLD50 (Plutella xylostella eggs): >2

CC(=O)C1CCCCC1=O (stereo not shown) [2-Acetylcyclohexanone]
inhibition at 10000 µM (Plutella xylostella eggs; [3]): 0%
Logit calc pLD50 (Plutella xylostella eggs): 0.7
Pref pLD50 (Plutella xylostella eggs): <2

— patent publication US20070254907A1, “COMPOSITIONS AND METHODS FOR CONTROLLING INFESTATION” (HATCHTECH PTY LTD, priority 2003, published 2007)
